Source: ChEMBL document CHEMBL4011659, “Combining Elements from Two Antagonists of Formyl Peptide Receptor 2 Generates More Potent Peptidomimetic Antagonists” (J Med Chem, 2017)
Activity calls are given as the source filed them. The calls are words filed in the database; no cut-off is given here.

Tests used:
[1] = target: T1, fMet-Leu-Phe receptor (Homo sapiens) (UniProt P21462); assay: Antagonist activity at FPR1 in human peripheral blood polymorphonuclear neutrophils assessed as inhibition of fMLF-induced ROS production at <500 nM preincubated for 5 mins followed fMLF stimulation by isoluminol/HRP-based chemiluminescence assay
T1 sequence (whole entry): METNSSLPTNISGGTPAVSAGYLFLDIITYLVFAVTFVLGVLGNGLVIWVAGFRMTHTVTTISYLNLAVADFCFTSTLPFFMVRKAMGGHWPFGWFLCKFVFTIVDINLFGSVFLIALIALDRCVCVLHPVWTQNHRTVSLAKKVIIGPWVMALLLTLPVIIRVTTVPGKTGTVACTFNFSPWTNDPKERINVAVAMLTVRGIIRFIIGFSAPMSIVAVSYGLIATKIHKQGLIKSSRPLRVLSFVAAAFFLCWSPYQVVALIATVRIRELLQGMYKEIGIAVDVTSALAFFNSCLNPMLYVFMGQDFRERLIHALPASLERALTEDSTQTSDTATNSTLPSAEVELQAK

[2] = target: T2, N-formyl peptide receptor 2 (Homo sapiens, UniProt P25090); assay: Antagonist activity at FPR2 in human peripheral blood polymorphonuclear neutrophils assessed as inhibition of WKYMVM-peptide induced ROS production preincubated for 5 mins followed WKYMVM-peptide stimulation by isoluminol/HRP-based chemiluminescence assay
T2 sequence (P25090 whole entry): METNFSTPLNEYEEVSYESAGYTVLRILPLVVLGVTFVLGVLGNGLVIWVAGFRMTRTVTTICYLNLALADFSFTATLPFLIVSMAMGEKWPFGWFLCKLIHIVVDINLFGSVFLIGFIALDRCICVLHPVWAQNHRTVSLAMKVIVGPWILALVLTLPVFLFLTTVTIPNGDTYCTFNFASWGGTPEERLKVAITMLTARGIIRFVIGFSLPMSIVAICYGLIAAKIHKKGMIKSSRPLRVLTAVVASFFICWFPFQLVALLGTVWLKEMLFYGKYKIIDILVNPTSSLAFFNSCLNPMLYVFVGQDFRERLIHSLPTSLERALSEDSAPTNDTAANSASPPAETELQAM

Compound: CCN(CC)c1ccc2c(-c3ccccc3C(=O)N[C@@H](CCCCN)C(=O)N(CCC(=O)N[C@@H](CCCCN)C(=O)N(CCC(=O)N[C@@H](CCCCN)C(=O)N(CCC(=O)N[C@@H](CCCCN)C(=O)N(CCC(=O)N[C@@H](CCCCN)C(=O)N(CCC(N)=O)Cc3ccccc3)Cc3ccccc3)Cc3ccccc3)Cc3ccccc3)Cc3ccccc3)c3ccc(=[N+](CC)CC)cc-3oc2c1
- inhibition [1]: inactive
- IC50 [2]: 18 nM

Compound: CCN(CC)c1ccc2c(-c3ccccc3C(=O)N[C@@H](CCCCN)C(=O)N(CCC(=O)N[C@@H](CCCCN)C(=O)N(CCC(=O)N[C@@H](CCCCN)C(=O)N(CCC(=O)N[C@@H](CCCCN)C(=O)N(CCC(=O)N[C@@H](CCCCN)C(=O)N(CCC(=O)N[C@@H](CCCCN)C(=O)N(CCC(N)=O)[C@H](C)c3ccccc3)[C@H](C)c3ccccc3)[C@H](C)c3ccccc3)[C@H](C)c3ccccc3)[C@H](C)c3ccccc3)[C@H](C)c3ccccc3)c3ccc(=[N+](CC)CC)cc-3oc2c1
- inhibition [1]: inactive
- IC50 [2]: 44 nM

Compound: CCN(CC)c1ccc2c(-c3ccccc3C(=O)N[C@@H](CCCCN)C(=O)N(CCC(=O)N[C@@H](CCCCN)C(=O)N(CCC(=O)N[C@@H](CCCCN)C(=O)N(CCC(=O)N[C@@H](CCCCN)C(=O)N(CCC(=O)N[C@@H](CCCCN)C(=O)N(CCC(=O)N[C@@H](CCCCN)C(=O)N(CCC(=O)N[C@@H](CCCCN)C(=O)N(CCC(N)=O)Cc3ccccc3)Cc3ccccc3)Cc3ccccc3)Cc3ccccc3)Cc3ccccc3)Cc3ccccc3)Cc3ccccc3)c3ccc(=[N+](CC)CC)cc-3oc2c1
- inhibition [1]: inactive
- IC50 [2]: 35 nM

Compound: CCN(CC)c1ccc2c(-c3ccccc3C(=O)N[C@@H](CCCCN)C(=O)N(CCC(=O)N[C@@H](CCCCN)C(=O)N(CCC(=O)N[C@@H](CCCCN)C(=O)N(CCC(=O)N[C@@H](CCCCN)C(=O)N(CCC(=O)N[C@@H](CCCCN)C(=O)N(CCC(=O)N[C@@H](CCCCN)C(=O)N(CCC(N)=O)Cc3cc(F)c(F)c(F)c3)Cc3cc(F)c(F)c(F)c3)Cc3cc(F)c(F)c(F)c3)Cc3cc(F)c(F)c(F)c3)Cc3cc(F)c(F)c(F)c3)Cc3cc(F)c(F)c(F)c3)c3ccc(=[N+](CC)CC)cc-3oc2c1
- inhibition [1]: inactive
- IC50 [2]: 53 nM

Compound: CCN(CC)c1ccc2c(-c3ccccc3C(=O)N[C@@H](CCCCN)C(=O)N(CCC(N)=O)Cc3ccccc3)c3ccc(=[N+](CC)CC)cc-3oc2c1
- inhibition [1]: inactive
- IC50 [2]: 759 nM

Compound: CCN(CC)c1ccc2c(-c3ccccc3C(=O)N[C@@H](CCCCN)C(=O)N(CCC(=O)N[C@@H](CCCCN)C(=O)N(CCC(=O)N[C@@H](CCCCN)C(=O)N(CCC(=O)N[C@@H](CCCCN)C(=O)N(CCC(=O)N[C@@H](CCCCN)C(=O)N(CCC(=O)N[C@@H](CCCCN)C(=O)N(CCC(N)=O)Cc3ccc(C)cc3)Cc3ccc(C)cc3)Cc3ccc(C)cc3)Cc3ccc(C)cc3)Cc3ccc(C)cc3)Cc3ccc(C)cc3)c3ccc(=[N+](CC)CC)cc-3oc2c1
- inhibition [1]: inactive
- IC50 [2]: 24 nM

Compound: CCN(CC)c1ccc2c(-c3ccccc3C(=O)N[C@@H](CCCCN)C(=O)N(CCC(=O)N[C@@H](CCCCN)C(=O)N(CCC(=O)N[C@@H](CCCCN)C(=O)N(CCC(=O)N[C@@H](CCCCN)C(=O)N(CCC(=O)N[C@@H](CCCCN)C(=O)N(CCC(=O)N[C@@H](CCCCN)C(=O)N(CCC(=O)N[C@@H](CCCCN)C(=O)N(CCC(=O)N[C@@H](CCCCN)C(=O)N(CCC(N)=O)Cc3ccccc3)Cc3ccccc3)Cc3ccccc3)Cc3ccccc3)Cc3ccccc3)Cc3ccccc3)Cc3ccccc3)Cc3ccccc3)c3ccc(=[N+](CC)CC)cc-3oc2c1
- inhibition [1]: inactive
- IC50 [2]: 41 nM

Compound: CCN(CC)c1ccc2c(-c3ccccc3C(=O)N[C@@H](CCCCN)C(=O)N(CCC(=O)N[C@@H](CCCCN)C(=O)N(CCC(=O)N[C@@H](CCCCN)C(=O)N(CCC(N)=O)Cc3ccccc3)Cc3ccccc3)Cc3ccccc3)c3ccc(=[N+](CC)CC)cc-3oc2c1
- inhibition [1]: inactive
- IC50 [2]: 28 nM

Compound: CCN(CC)c1ccc2c(-c3ccccc3C(=O)N[C@@H](CCCCN)C(=O)N(CCC(=O)N[C@@H](CCCCN)C(=O)N(CCC(N)=O)Cc3ccccc3)Cc3ccccc3)c3ccc(=[N+](CC)CC)cc-3oc2c1
- inhibition [1]: inactive
- IC50 [2]: 273 nM
